Reference: patent US20260062422A1 (Halda Therapeutics OpCo, Inc., priority 2022, published 2026)

Columns and labels:
[1] = target: T1, BRD4-BD1 (Homo sapiens, UniProt O60885); test: bromoKdELECT assay for binding affinity to BRD4-BD1; conditions: Table 6
T1 construct: made in house; host or cells: T7 phage grown in an E. coli host derived from BL21
Method: Compounds were tested using a bromoKdELECT assay. T7 phage strains displaying bromodomains were grown in parallel in 24-well blocks in an E. coli host derived from the BL21 strain. E. coli were grown to log-phase and infected with T7 phage from a frozen stock (multiplicity of infection=0.4) and incubated with shaking at 32° C. until lysis (90-150 minutes). The lysates were centrifuged (5,000×g) and filtered (0.2 μm) to remove cell debris. Streptavidin-coated magnetic beads were treated with biotinylated small molecule or acetylated peptide ligands for 30 minutes at room temperature to generate affinity resins for bromodomain assays. The liganded beads were blocked with excess biotin and washed with blocking buffer (SeaBlock (Pierce), 1% BSA, 0.05% Tween 20, 1 mM DTT) to remove unbound ligand and to reduce nonspecific phage binding. Binding reactions were assembled by combining bromodomains, liganded affinity beads, and test compounds in 1× binding buffer (17% SeaBlock, 0.33×PBS, 0.04% Tween 20, 0.02% BSA, 0.004% Sodium azide, 7.4 mM DTT). Test compounds were prepared as 1000× stocks in 100% DMSO. Kds were determined using an 11-point 3-fold compound dilution series with one DMSO control point. All compounds for Kd measurements are distributed by acoustic transfer (non-contact dispensing) in 100% DMSO. The compounds were then diluted directly into the assays such that the final concentration of DMSO was 0.09%. All reactions performed in polypropylene 384-well plates. Each was a final volume of 0.02 ml. The assay plates were incubated at room temperature with shaking for 1 hour and the affinity beads were washed with wash buffer (1×PBS, 0.05% Tween 20). The beads were then resuspended in elution buffer (1×PBS, 0.05% Tween […] non-biotinylated affinity ligand) and incubated at room temperature with shaking for 30 minutes. The bromodomain concentration in the eluates was measured by qPCR.

[2] = Cellular growth inhibition, T-Rex 293 SC cells with doxycycline (progesterone receptor isoform B induced), Example 45; format: cell-based; conditions: progesterone receptor isoform B induced with 10 ng/mL doxycycline, 72 hours, CellTiter-Glo 2.0, Table 11
[3] = test system: T-Rex 293 cell line SC cells lacking increased expression of progesterone receptor isoform B protein; test: Cellular growth inhibition, T-Rex 293 SC cells without doxycycline, Example 45; format: cell-based; conditions: T-Rex 293 SC cells not exposed to doxycycline, 72 hours treatment, CellTiter-Glo 2.0
[4] = test system: T47D cells; test: Cellular growth inhibition assay for T47D cells, CellTiter-Glo; format: cell-based, human; conditions: Homo sapiens, T47D, 72 h, 72 hours treatment, CellTiter-Glo 2.0 cell viability
Summary of the method: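 Growth inhibition as GI50, fitted with four parameters to CellTiter-Glo luminescence after 72 h of compound exposure (0.5% DMSO). Cells were T47D, grown in insulin-supplemented (0.2 units/mL) DMEM with 10% FBS and treated one day post-seeding.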

## Cc1sc2c(c1C)C(c1ccc(OCCOC3CCN(c4ncc(C(=O)N[C@H]5C(C)(C)[C@H](Oc6ccc(C#N)c(Cl)c6)C5(C)C)cn4)CC3)cc1)=N[C@@H](CC(=O)OC(C)(C)C)c1nnc(C)n1-2 [Compound I-235, tert-butyl 2-((S)-4-(4-(2-((1-(5-(((1r,3r)-3-(3-chloro-4-cyanophenoxy)-2,2,4,4-tetramethylcyclobutyl)carbamoyl)pyrimidin-2-yl)piperidin-4-yl)oxy)ethoxy)phenyl)-2,3,9-trimethyl-6H-thieno[3,2-f][1,2,4]triazolo[4,3-a][1,4]diazepin-6-yl)acetate]
[1]
  Kd: > 2500 nM
[2]
  GI50: < 500 nM
[3]
  GI50: < 500 nM
[4]
  GI50: < 500 nM

## Cc1sc2c(c1C)C(c1ccc(Cl)cc1)=N[C@@H](CC(=O)NCCOCCOCCOCCOCCN(C)c1ncc(C(=O)N[C@H]3C(C)(C)[C@H](Oc4ccc(C#N)c(Cl)c4)C3(C)C)cn1)c1nnc(C)n1-2 [Compound I-3, N-((1r,3r)-3-(3-chloro-4-cyanophenoxy)-2,2,4,4-tetramethylcyclobutyl)-2-((1-((S)-4-(4-chlorophenyl)-2,3,9-trimethyl-6H-thieno[3,2-f][1,2,4]triazolo[4,3-a][1,4]diazepin-6-yl)-2-oxo-6,9,12,15-tetraoxa-3-azaheptadecan-17-yl)(methyl)amino)pyrimidine-5-carboxamide]
[1]
  Kd: 50 to 500 nM
[2]
  GI50: < 500 nM
[3]
  GI50: 1500 to 3000 nM

## CCNC(=O)C[C@@H]1N=C(c2ccc(OCCOC3CCN(c4ncc(C(=O)N[C@H]5C(C)(C)[C@H](Oc6ccc(C#N)c(Cl)c6)C5(C)C)cn4)CC3)cc2)c2c(sc(C)c2C)-n2c(C)nnc21 [Compound I-60, N-((1r,3r)-3-(3-chloro-4-cyanophenoxy)-2,2,4,4-tetramethylcyclobutyl)-2-(4-(2-(4-((S)-6-(2-(ethylamino)-2-oxoethyl)-2,3,9-trimethyl-6H-thieno[3,2-f][1,2,4]triazolo[4,3-a][1,4]diazepin-4-yl)phenoxy)ethoxy)piperidin-1-yl)pyrimidine-5-carboxamide]
[1]
  Kd: 50 to 500 nM
[2]
  GI50: < 500 nM
[3]
  GI50: < 500 nM
[4]
  GI50: 500 to 1500 nM

## Cc1sc2c(c1C)C(c1ccc(CCCOC3CCN(c4ncc(C(=O)N[C@H]5C(C)(C)[C@H](Oc6ccc(C#N)c(Cl)c6)C5(C)C)cn4)CC3)cc1)=N[C@@H](Cc1ncco1)c1nnc(C)n1-2 [Compound I-131, N-[3-(3-chloro-4-cyano-phenoxy)-2,2,4,4-tetramethyl-cyclobutyl]-2-[4-[3-[4-[(9S)-4,5,13-trimethyl-9-(oxazol-2-ylmethyl)-3-thia-1,8,11,12-tetrazatricyclo[8.3.0.02,6]trideca-2(6),4,7,10,12-pentaen-7-yl]phenyl]propoxy]-1-piperidyl]pyrimidine-5-carboxamide]
[1]
  Kd: > 2500 nM
[2]
  GI50: < 500 nM
[3]
  GI50: < 500 nM
[4]
  GI50: < 500 nM

## Cc1sc2c(c1C)C(c1ccc(Cl)cc1)=N[C@@H](CC(=O)NCCOC1CCN(c3ncc(C(=O)N[C@H]4C(C)(C)[C@H](Oc5ccc(C#N)c(Cl)c5)C4(C)C)cn3)CC1)c1nnc(C)n1-2 [Compound I-6]
[1]
  Kd: > 2500 nM
[2]
  GI50: < 500 nM
[3]
  GI50: < 500 nM

## Cc1sc2c(c1C)C(c1ccc(Cl)cc1)=N[C@@H](CC(=O)NCCOCCOCCOCCOCCOC1CCN(c3ncc(C(=O)N[C@H]4C(C)(C)[C@H](Oc5ccc(C#N)c(Cl)c5)C4(C)C)cn3)CC1)c1nnc(C)n1-2 [Compound I-8]
[1]
  Kd: 500 to 2500 nM
[2]
  GI50: < 500 nM
[3]
  GI50: 500 to 1500 nM
[4]
  GI50: 500 to 1500 nM

## Cc1sc2c(c1C)C(c1ccc(CCCOC3CCN(c4ncc(C(=O)N[C@H]5C(C)(C)[C@H](Oc6ccc(C#N)c(Cl)c6)C5(C)C)cn4)CC3)cc1)=N[C@@H](C)c1nnc(C)n1-2 [Compound I-228, N-[3-(3-chloro-4-cyano-phenoxy)-2,2,4,4-tetramethyl-cyclobutyl]-2-[4-[3-[4-[(9S)-4,5,9,13-tetramethyl-3-thia-1,8,11,12-tetrazatricyclo [8.3.0.02,6]trideca-2(6),4,7,10,12-pentaen-7-yl]phenyl]propoxy]-1-piperidyl]pyrimidine-5-carboxamide]
[1]
  Kd: 500 to 2500 nM
[2]
  GI50: < 500 nM
[3]
  GI50: 500 to 1500 nM
[4]
  GI50: < 500 nM

## COCC[C@@H]1N=C(c2ccc(CCCOC3CCN(c4ncc(C(=O)N[C@H]5C(C)(C)[C@H](Oc6ccc(C#N)c(Cl)c6)C5(C)C)cn4)CC3)cc2)c2c(sc(C)c2C)-n2c(C)nnc21 [Compound I-227, N-[3-(3-chloro-4-cyano-phenoxy)-2,2,4,4-tetramethyl-cyclobutyl]-2-[4-[3-[4-[(9S)-9-(2-methoxyethyl)-4,5,13-trimethyl-3-thia-1,8,11,12-tetrazatricyclo[8.3.0.02,6]trideca-2(6),4,7,10,12-pentaen-7-yl]phenyl]propoxy]-1-piperidyl]pyrimidine-5-carboxamide]
[1]
  Kd: > 2500 nM
[2]
  GI50: < 500 nM
[3]
  GI50: 500 to 1500 nM
[4]
  GI50: 500 to 1500 nM

## CCNC(=O)C[C@@H]1N=C(c2ccc(N3CCN(CC4CCN(c5ncc(C(=O)N[C@H]6C(C)(C)[C@H](Oc7ccc(C#N)c(Cl)c7)C6(C)C)cn5)CC4)CC3)cc2)c2c(sc(C)c2C)-n2c(C)nnc21 [Compound I-105, N-[3-(3-chloro-4-cyano-phenoxy)-2,2,4,4-tetramethyl-cyclobutyl]-2-[4-[[4-[4-[(9S)-9-[2-(ethylamino)-2-oxo-ethyl]-4,5,13-trimethyl-3-thia-1,8,11,12-tetrazatricyclo[8.3.0.02,6]trideca-2(6),4,7,10,12-pentaen-7-yl]phenyl]piperazin-1-yl]methyl]-1-piperidyl]pyrimidine-5-carboxamide]
[1]
  Kd: 50 to 500 nM
[2]
  GI50: < 500 nM
[3]
  GI50: < 500 nM
[4]
  GI50: < 500 nM

## Cc1sc2c(c1C)C(c1ccc(Cl)cc1)=N[C@@H](CC(=O)NCCOCCOCCOC1CCN(c3ncc(C(=O)N[C@H]4C(C)(C)[C@H](Oc5ccc(C#N)c(Cl)c5)C4(C)C)cn3)CC1)c1nnc(C)n1-2 [Compound I-7]
[1]
  Kd: 500 to 2500 nM
[2]
  GI50: < 500 nM
[3]
  GI50: < 500 nM
[4]
  GI50: < 500 nM

## Cc1sc2c(c1C)C(c1ccc(Cl)cc1)=N[C@H](CC(=O)NCCOCCOCCOCCOCCOCCOCCOC1CCN(c3ncc(C(=O)N[C@H]4C(C)(C)[C@H](Oc5ccc(C#N)c(Cl)c5)C4(C)C)cn3)CC1)c1nnc(C)n1-2 [Compound I-9]
[1]
  Kd: 500 to 2500 nM
[2]
  GI50: < 500 nM
[3]
  GI50: 1500 to 3000 nM

## CCNC(=O)C[C@@H]1N=C(c2ccc(OCCOC3CCN(c4ncc(C(=O)N[C@H]5C(C)(C)[C@H](Oc6ccc(C#N)c(Cl)c6)C5(C)C)cn4)CC3)c(F)c2F)c2c(sc(C)c2C)-n2c(C)nnc21 [Compound I-73]
[1]
  Kd: 500 to 2500 nM
[4]
  GI50: 500 to 1500 nM

## CCN(C)C(=O)C[C@@H]1N=C(c2ccc(OCCOC3CCN(c4ncc(C(=O)N[C@H]5C(C)(C)[C@H](Oc6ccc(C#N)c(Cl)c6)C5(C)C)cn4)CC3)cc2)c2c(sc(C)c2C)-n2c(C)nnc21 [Compound I-66]
[1]
  Kd: 500 to 2500 nM
[4]
  GI50: 500 to 1500 nM

## CCNC(=O)C[C@@H]1N=C(c2ccc(OCCOC3CCN(c4ncc(C(=O)N[C@H]5C(C)(C)[C@H](Oc6ccc(C#N)c(Cl)c6)C5(C)C)cn4)CC3)cc2F)c2c(sc(C)c2C)-n2c(C)nnc21 [Compound I-75]
[1]
  Kd: 500 to 2500 nM
[4]
  GI50: < 500 nM

## Cc1sc2c(c1C)C(c1ccc(CCCOC3CCN(c4ncc(C(=O)N[C@H]5C(C)(C)[C@H](Oc6ccc(C#N)c(Cl)c6)C5(C)C)cn4)CC3)cc1)=N[C@@H](CC(=O)NC1CC1)c1nnc(C)n1-2 [Compound I-102]
[1]
  Kd: 500 to 2500 nM
[4]
  GI50: < 500 nM

## CCNC(=O)C[C@@H]1N=C(c2ccc(N(C)CCN3CCN(c4ncc(C(=O)N[C@H]5C(C)(C)[C@H](Oc6ccc(C#N)c(Cl)c6)C5(C)C)cn4)CC3)cc2)c2c(sc(C)c2C)-n2c(C)nnc21 [Compound I-108]
[1]
  Kd: 50 to 500 nM
[4]
  GI50: 500 to 1500 nM
